This note sets out measurements from ChEMBL document CHEMBL1811880, “Studies on quinones. Part 47. Synthesis of novel phenylaminophenanthridinequinones as potential antitumor agents” (Eur J Med Chem, 2011).

The IC50 is the midpoint of a concentration-inhibition curve. High values mean weaker potency in that assay, low ones greater potency in that assay.

For one experiment, the system named is J82. Nature of the experiment: Anticancer activity against human J82 cells after 3 days by MTT assay. It is filed as functional, cell-based. The conditions noted are these: J82, 72 h. (Tetrazolium dyes change colour on reduction, which living cells bring about.)
The test system of the next experiment is SK-MES-1. Nature of the experiment: Anticancer activity against human SKMES1 cells after 3 days by MTT assay. In kind it is functional, cell-based. The conditions noted are these: SK-MES-1, 72 h.
Another experiment relates to AGS. Put plainly: Anticancer activity against human AGS cells after 3 days by MTT assay. It is filed as functional, cell-based. The conditions noted are these: 72 h.
The test system of experiment [1] is MRC5. Nature of the experiment: Anticancer activity against human MRC5 cells after 3 days by MTT assay. The conditions noted are these: MRC5, 72 h. In kind it is ADME, cell-based.
Experiment [2] concerns MRC5. Nature of the experiment: Selectivity index, ratio IC50 for human MRC5 cells to IC50 for human SKMES1 cells. In kind it is functional.
Experiment [3] concerns MRC5. Put plainly: Selectivity index, ratio IC50 for human MRC5 cells to IC50 for human AGS cells. In kind it is functional.
Experiment [4] deals with MRC5. Nature of the experiment: Selectivity index, ratio IC50 for human MRC5 cells to IC50 for human J82 cells. In kind it is functional.

In turn, `COc1cc([C@@H]2c3cc4c(cc3[C@@H](O[C@@H]3O[C@@H]5CO[C@@H](C)O[C@H]5[C@H](O)[C@H]3O)[C@H]3COC(=O)[C@H]23)OCO4)cc(OC)c1O` [ETOPOSIDE] had a half-inhibitory concentration (IC50) in the experiment with J82 of 0.8 µM. In other words, the sub-micromolar range.
Take `CCN(C1=CC(=O)c2c(cnc3c2C(=O)CCC3)C1=O)c1ccccc1`: the IC50 was 11.7 µM in the experiment with SK-MES-1, 15.2 µM with J82, 4.4 µM with AGS and 8.6 µM with MRC5 [1].
As for `COc1ccc(OC)c(NC2=CC(=O)c3c(cnc4c3C(=O)CCC4)C2=O)c1`, the half-maximal inhibitory concentration (IC50) in the experiment with SK-MES-1 was 1.8 µM; in the experiment on J82 it was 2.5 µM; with AGS, 0.32 µM; with MRC5 [1], 2.6 µM. The “Ratio IC50” value in the experiment on MRC5 [2] and with MRC5 [3] was 6 throughout.
For `Cc1nc2c(c3c1C(=O)C(Nc1ccc(O)cc1)=CC3=O)C(=O)CCC2`, the IC50 amounted to 3.2 µM in the experiment with SK-MES-1, 1.9 µM in the experiment on J82, 1.2 µM with AGS and 2.6 µM with MRC5 [1].
`COc1ccccc1NC1=CC(=O)c2c(c(C)nc3c2C(=O)CCC3)C1=O`: the concentration for half-maximal inhibition (IC50) in the experiment with SK-MES-1 came to 4.3 µM; in the experiment with J82, 3.7 µM; in the experiment with AGS it was 0.22 µM; in the experiment on MRC5 [1], 1.6 µM.
For `O=C1CCCc2nc(-c3ccccc3)c3c(c21)C(=O)C=CC3=O` the same measures were 73 µM, 57.6 µM, 13.9 µM and 31.2 µM.
As to `COc1ccc(NC2=CC(=O)c3c(c(C)nc4c3C(=O)CCC4)C2=O)cc1`, the IC50 amounted to 4.1 µM in the experiment on SK-MES-1, 3 µM in the experiment with J82, 1.2 µM with AGS and 5.2 µM with MRC5 [1].
`O=C1CCCc2nc(-c3ccsc3)c3c(c21)C(=O)C=CC3=O`: the IC50 in the experiment on SK-MES-1 is 76.7 µM; in the experiment on J82 it was more than 100 µM; in the experiment with AGS, 37.1 µM; in the experiment on MRC5 [1], 71 µM.
For the compound `CN(C1=CC(=O)c2cnc3c(c2C1=O)C(=O)CCC3)c1ccccc1`, the IC50 was found to be 8.7 µM in the experiment with SK-MES-1, 8.4 µM in the experiment with J82, 8.3 µM with AGS and 7.3 µM in the experiment on MRC5 [1].
As to `COc1ccc(OC)c(NC2=CC(=O)c3cnc4c(c3C2=O)C(=O)CCC4)c1`, the IC50 in the experiment on SK-MES-1 turned out to be 21.3 µM; with J82, 56.7 µM; with AGS, 32.9 µM; in the experiment on MRC5 [1], 46.4 µM.
`COc1ccc(OC)c(NC2=CC(=O)c3c(c(C)nc4c3C(=O)CCC4)C2=O)c1`: the half-maximal inhibitory concentration (IC50) with SK-MES-1 was 21.7 µM; in the experiment on J82 it was 7.1 µM; in the experiment with AGS it was 1.4 µM; in the experiment on MRC5 [1], 5 µM.
In the case of `O=C1CCCc2nc(-c3ccsc3)c3c(c21)C(=O)C=C(Nc1ccccc1)C3=O`, the half-maximal inhibitory concentration (IC50) in the experiment with SK-MES-1 turned out to be 2.9 µM; in the experiment on J82, 2.5 µM; in the experiment with AGS, 0.35 µM; in the experiment on MRC5 [1], 2.8 µM. Further, the “Ratio IC50” value in the experiment on MRC5 [2] and in the experiment with MRC5 [3] was 6 throughout.
`COc1ccc(OC)c(NC2=CC(=O)c3c(cnc4cccc(O)c34)C2=O)c1`: the IC50 with SK-MES-1 was 0.63 µM; with J82, 1.4 µM; in the experiment on AGS, 0.18 µM; in the experiment with MRC5 [1], 0.53 µM.
In the experiment with J82, `O=C1C=CC(=O)c2c1cnc1c2C(=O)CCC1` returned an IC50 of 15.8 µM.
In the case of `O=C1C=C(Nc2ccccc2)C(=O)c2c1cnc1c2C(=O)CCC1`, the IC50 in the experiment with SK-MES-1 worked out at 7.5 µM; in the experiment on J82, 8.1 µM; in the experiment on AGS it was 3.9 µM; with MRC5 [1], 5.9 µM.
Take `O=C1C(Nc2ccccc2)=CC(=O)c2c1cnc1c2C(=O)CCC1`: the IC50 in the experiment with SK-MES-1 is 1.3 µM; in the experiment with J82, 2.1 µM; in the experiment with AGS, 0.23 µM; with MRC5 [1] it was 1.4 µM. Besides, the “Ratio IC50” value in the experiment on MRC5 [2] and in the experiment on MRC5 [3] was 6 in each case.
Take `COc1ccc(OC)c(NC2=CC(=O)c3cnc4cccc(O)c4c3C2=O)c1`: the 50% inhibitory concentration (IC50) in the experiment with SK-MES-1 came out at 13.5 µM; in the experiment on J82, 0.61 µM; in the experiment on AGS, 19.8 µM; in the experiment on MRC5 [1] it was 17.2 µM. For the same compound, in the experiment with MRC5 [4], the “Ratio IC50” value came out at 28.
With `COc1ccc(NC2=CC(=O)c3c(cnc4c3C(=O)CCC4)C2=O)cc1`, the IC50 in the experiment on SK-MES-1 was determined as 2 µM; in the experiment with J82, 2.8 µM; in the experiment with AGS, 0.47 µM; in the experiment on MRC5 [1], 2.6 µM.
In the case of `Cc1nc2c(c3c1C(=O)C(Nc1ccccc1)=CC3=O)C(=O)CCC2`, the half-inhibitory concentration (IC50) is 5.7 µM with SK-MES-1, 4.2 µM with J82, 0.65 µM in the experiment with AGS and 2 µM in the experiment on MRC5 [1].
In the case of `O=C1CCCc2nc(-c3ccco3)c3c(c21)C(=O)C=C(Nc1ccccc1)C3=O`, the IC50 in the experiment on SK-MES-1 turned out to be 3.1 µM; in the experiment with J82 it was 2.4 µM; in the experiment with AGS, 0.58 µM; in the experiment with MRC5 [1] it was 2.7 µM.
As to `CCN(C1=CC(=O)c2cnc3c(c2C1=O)C(=O)CCC3)c1ccccc1`, the concentration for half-maximal inhibition (IC50) with SK-MES-1 turned out to be 17.7 µM; with J82, 19.5 µM; in the experiment on AGS it was 17.1 µM; with MRC5 [1], 19.6 µM.
On to `COc1ccc(NC2=CC(=O)c3cnc4c(c3C2=O)C(=O)CCC4)cc1`, for which the half-maximal inhibitory concentration (IC50) came to 3.7 µM with SK-MES-1, 4 µM with J82, 2.2 µM in the experiment with AGS and 4.8 µM in the experiment on MRC5 [1].
For `Cc1nc2c(c3c1C(=O)C(Nc1ccc(F)cc1)=CC3=O)C(=O)CCC2`, the IC50 in the experiment on SK-MES-1 came to 3.3 µM; in the experiment with J82 it was 3.8 µM; with AGS it was 0.79 µM; in the experiment on MRC5 [1], 3 µM.
As to `O=C1CCCc2nc(-c3ccccc3)c3c(c21)C(=O)C=C(Nc1ccccc1)C3=O`, the IC50 with SK-MES-1 is 2.8 µM; with J82 it was 2.9 µM; in the experiment on AGS, 0.33 µM; in the experiment on MRC5 [1], 2.7 µM. Moreover, the “Ratio IC50” value in the experiment on MRC5 [2] and in the experiment on MRC5 [3] was 6 in each case.
In the case of `O=C1CCCc2nc(-c3ccco3)c3c(c21)C(=O)C=CC3=O`, the 50% inhibitory concentration (IC50) turned out to be 96.9 µM in the experiment with SK-MES-1, 80.4 µM in the experiment with J82, 68 µM with AGS and 59 µM in the experiment with MRC5 [1].
Regarding `CN(C1=CC(=O)c2c(cnc3c2C(=O)CCC3)C1=O)c1ccccc1`, the IC50 in the experiment on SK-MES-1 was found to be 10.6 µM; in the experiment with J82, 12.9 µM; in the experiment with AGS, 4.7 µM; in the experiment with MRC5 [1], 7.5 µM.
